# Results from US11370770B2, “3-arylindazoles as selective MEK4 inhibitors” (priority 2019, dated 2022).
# How the values were obtained:
# TRKC = TRKC (Homo sapiens (Human), UniProt Q16288); assay: KINOMEscan binding assay; details: percent of control
# CHEK2 = CHEK2 (Homo sapiens (Human), UniProt O96017); assay: KINOMEscan binding assay; details: percent of control
# SIK2 = SIK2 (Homo sapiens (Human), UniProt Q9H0K1); assay: KINOMEscan binding assay; details: percent of control
# EPHA6 = EPHA6 (Homo sapiens (Human), UniProt Q9UF33); assay: KINOMEscan binding assay; details: percent of control
# NLK = NLK (Homo sapiens (Human), UniProt Q9UBE8); assay: KINOMEscan binding assay; details: percent of control
# IKK-EPSILON = IKK-EPSILON (Homo sapiens (Human), UniProt Q14164); assay: KINOMEscan binding assay; details: percent of control
# ABL2 = ABL2 (Homo sapiens (Human), UniProt P42684); assay: KINOMEscan binding assay; details: percent of control
# CSNK1G1 = CSNK1G1 (Homo sapiens (Human), UniProt Q9HCP0); assay: KINOMEscan binding assay; details: percent of control
# EPHA2 = EPHA2 (Homo sapiens (Human), UniProt P29317); assay: KINOMEscan binding assay; details: percent of control
# MARK4 = MARK4 (Homo sapiens (Human), UniProt Q96L34); assay: KINOMEscan binding assay; details: percent of control
# CDC2L1 = CDC2L1 (Homo sapiens (Human), UniProt P21127); assay: KINOMEscan binding assay; details: percent of control
# MRCKA = MRCKA (Homo sapiens (Human), UniProt Q5VT25); assay: KINOMEscan binding assay; details: percent of control
# PHKG2 = PHKG2 (Homo sapiens (Human), UniProt P15735); assay: KINOMEscan binding assay; details: percent of control
# [1] = target: ABL1(T3151)-phosphorylated (Homo sapiens (Human), UniProt P00519, T315I); assay: KINOMEscan binding assay; details: percent of control
# CSNK1A1L = CSNK1A1L (Homo sapiens (Human), UniProt Q8N752); assay: KINOMEscan binding assay; details: percent of control
# TEC = TEC (Homo sapiens (Human), UniProt P42680); assay: KINOMEscan binding assay; details: percent of control
# MEK2 [2] = target: T1, MEK2 (Homo sapiens (Human), UniProt P36507); assay: MEK family profiling ADP-Glo, MEK2; format: biochemical; details: Erk2 substrate; 0.6 μM ATP; read-out: IC50 MEK isoform 2
# AAK1 = AAK1 (Homo sapiens (Human), UniProt Q2M2I8); assay: KINOMEscan binding assay; details: percent of control
# MEK5 = MEK5 (Homo sapiens (Human), UniProt Q13163); assay: MEK family profiling ADP-Glo, MEK5; format: biochemical; details: Erk5 substrate; 0.6 μM ATP; read-out: IC50 MEK isoform 5
# MUSK = MUSK (Homo sapiens (Human), UniProt O15146); assay: KINOMEscan binding assay; details: percent of control
# VEGFR2 = VEGFR2 (Homo sapiens (Human), UniProt P35968); assay: KINOMEscan binding assay; details: percent of control
# MEK3 = MEK3 (Homo sapiens (Human), UniProt P46734); assay: KINOMEscan binding assay; details: percent of control
# EPHB4 = EPHB4 (Homo sapiens (Human), UniProt P54760); assay: KINOMEscan binding assay; details: percent of control
# [3] = target: EGFR(L747-S752DEL, P753S) (Homo sapiens (Human), UniProt P00533, DEL747-752/P753S); assay: KINOMEscan binding assay; details: percent of control
# ZAP70 = ZAP70 (Homo sapiens (Human), UniProt P43403); assay: KINOMEscan binding assay; details: percent of control
# MEK2 [4] = target: T1, MEK2; assay: KINOMEscan binding assay; details: percent of control
# FGFR1 = FGFR1 (Homo sapiens (Human), UniProt P11362); assay: KINOMEscan binding assay; details: percent of control
# MKK7 = MKK7 (Homo sapiens (Human), UniProt O14733); assay: KINOMEscan binding assay; details: percent of control
# HIPK1 = HIPK1 (Homo sapiens (Human), UniProt Q86Z02); assay: KINOMEscan binding assay; details: percent of control
# MLK2 = MLK2 (Homo sapiens (Human), UniProt Q02779); assay: KINOMEscan binding assay; details: percent of control
# DMPK = DMPK (Homo sapiens (Human), UniProt Q09013); assay: KINOMEscan binding assay; details: percent of control
# ICK = ICK (Homo sapiens (Human), UniProt Q9UPZ9); assay: KINOMEscan binding assay; details: percent of control
# PRKCD = PRKCD (Homo sapiens (Human), UniProt Q05655); assay: KINOMEscan binding assay; details: percent of control
# MEK6 = MEK6 (Homo sapiens (Human), UniProt P52564); assay: MEK family profiling ADP-Glo, MEK6; format: biochemical; details: p38α substrate; 0.6 μM ATP; read-out: IC50 MEK isoform 6
# ALK(L1196M) = ALK(L1196M) (Homo sapiens (Human), UniProt Q9UM73, L1196M); assay: KINOMEscan binding assay; details: percent of control
# TNIK = TNIK (Homo sapiens (Human), UniProt Q9UKE5); assay: KINOMEscan binding assay; details: percent of control
# ERK2 = ERK2 (Homo sapiens (Human), UniProt P28482); assay: KINOMEscan binding assay; details: percent of control
# PRP6 = assay: KINOMEscan binding assay; details: percent of control
# panel of 57 kinases = details: 10 μM; S(35) criterion
# KIT(L576P) = KIT(L576P) (Homo sapiens (Human), UniProt P10721, L576P); assay: KINOMEscan binding assay; details: percent of control
# MAP3K4 = MAP3K4 (Homo sapiens (Human), UniProt Q9Y6R4); assay: KINOMEscan binding assay; details: percent of control
# T1 sequence (P36507 whole entry, canonical isoform): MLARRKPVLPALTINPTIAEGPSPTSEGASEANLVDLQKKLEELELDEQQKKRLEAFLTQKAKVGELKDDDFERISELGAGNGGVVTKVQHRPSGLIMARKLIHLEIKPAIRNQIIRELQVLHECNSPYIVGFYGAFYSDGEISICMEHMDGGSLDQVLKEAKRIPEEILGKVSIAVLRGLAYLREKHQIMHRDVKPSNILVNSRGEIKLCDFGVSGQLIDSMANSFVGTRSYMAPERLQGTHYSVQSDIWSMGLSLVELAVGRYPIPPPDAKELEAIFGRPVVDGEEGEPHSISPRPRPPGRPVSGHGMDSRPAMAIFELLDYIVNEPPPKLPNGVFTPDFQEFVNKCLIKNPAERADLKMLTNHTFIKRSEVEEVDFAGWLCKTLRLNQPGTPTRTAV
# Sequence of MRCKA (Q5VT25 whole entry): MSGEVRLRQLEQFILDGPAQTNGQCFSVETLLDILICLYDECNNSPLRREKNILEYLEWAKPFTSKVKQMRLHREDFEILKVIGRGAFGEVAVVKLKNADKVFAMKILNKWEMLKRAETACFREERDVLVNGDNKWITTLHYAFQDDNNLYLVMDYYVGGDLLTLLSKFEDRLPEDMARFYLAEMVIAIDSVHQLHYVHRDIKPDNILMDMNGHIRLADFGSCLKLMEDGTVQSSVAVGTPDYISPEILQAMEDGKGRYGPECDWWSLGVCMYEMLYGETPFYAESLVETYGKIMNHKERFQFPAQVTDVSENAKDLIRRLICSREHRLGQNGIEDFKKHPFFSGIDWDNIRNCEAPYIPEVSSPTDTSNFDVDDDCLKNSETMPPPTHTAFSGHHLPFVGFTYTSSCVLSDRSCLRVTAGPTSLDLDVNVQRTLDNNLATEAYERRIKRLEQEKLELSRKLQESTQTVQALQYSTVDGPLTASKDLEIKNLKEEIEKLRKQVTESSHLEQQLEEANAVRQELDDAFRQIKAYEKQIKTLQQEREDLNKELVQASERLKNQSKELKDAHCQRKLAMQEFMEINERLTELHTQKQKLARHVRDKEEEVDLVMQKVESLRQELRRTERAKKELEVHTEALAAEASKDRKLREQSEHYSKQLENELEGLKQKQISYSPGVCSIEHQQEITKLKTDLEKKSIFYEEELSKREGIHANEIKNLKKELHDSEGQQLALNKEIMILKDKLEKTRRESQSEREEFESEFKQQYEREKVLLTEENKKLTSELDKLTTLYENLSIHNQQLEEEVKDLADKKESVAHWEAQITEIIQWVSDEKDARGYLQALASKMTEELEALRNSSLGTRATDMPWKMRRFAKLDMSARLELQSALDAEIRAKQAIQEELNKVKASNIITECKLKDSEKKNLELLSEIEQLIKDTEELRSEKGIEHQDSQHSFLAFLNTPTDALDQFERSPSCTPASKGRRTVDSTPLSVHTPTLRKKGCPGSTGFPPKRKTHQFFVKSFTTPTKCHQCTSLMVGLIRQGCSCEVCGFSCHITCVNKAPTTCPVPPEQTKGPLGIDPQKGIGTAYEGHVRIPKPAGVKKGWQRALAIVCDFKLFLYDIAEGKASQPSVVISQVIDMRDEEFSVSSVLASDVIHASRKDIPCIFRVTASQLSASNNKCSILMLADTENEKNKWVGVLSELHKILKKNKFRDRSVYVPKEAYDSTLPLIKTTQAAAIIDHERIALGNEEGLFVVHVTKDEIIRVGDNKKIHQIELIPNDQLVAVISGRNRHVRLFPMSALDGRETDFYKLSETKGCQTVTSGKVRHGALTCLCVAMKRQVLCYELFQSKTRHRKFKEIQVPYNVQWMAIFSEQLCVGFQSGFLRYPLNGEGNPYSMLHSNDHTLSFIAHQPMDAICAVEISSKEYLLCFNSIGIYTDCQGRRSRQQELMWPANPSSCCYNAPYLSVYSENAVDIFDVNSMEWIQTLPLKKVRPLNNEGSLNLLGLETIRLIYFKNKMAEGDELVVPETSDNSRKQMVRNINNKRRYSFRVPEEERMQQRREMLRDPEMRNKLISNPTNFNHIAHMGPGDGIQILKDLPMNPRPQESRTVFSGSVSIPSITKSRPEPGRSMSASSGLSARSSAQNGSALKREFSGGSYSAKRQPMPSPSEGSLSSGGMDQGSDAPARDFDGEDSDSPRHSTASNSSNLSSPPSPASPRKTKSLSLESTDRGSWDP
# Sequence of TNIK (Q9UKE5 whole entry): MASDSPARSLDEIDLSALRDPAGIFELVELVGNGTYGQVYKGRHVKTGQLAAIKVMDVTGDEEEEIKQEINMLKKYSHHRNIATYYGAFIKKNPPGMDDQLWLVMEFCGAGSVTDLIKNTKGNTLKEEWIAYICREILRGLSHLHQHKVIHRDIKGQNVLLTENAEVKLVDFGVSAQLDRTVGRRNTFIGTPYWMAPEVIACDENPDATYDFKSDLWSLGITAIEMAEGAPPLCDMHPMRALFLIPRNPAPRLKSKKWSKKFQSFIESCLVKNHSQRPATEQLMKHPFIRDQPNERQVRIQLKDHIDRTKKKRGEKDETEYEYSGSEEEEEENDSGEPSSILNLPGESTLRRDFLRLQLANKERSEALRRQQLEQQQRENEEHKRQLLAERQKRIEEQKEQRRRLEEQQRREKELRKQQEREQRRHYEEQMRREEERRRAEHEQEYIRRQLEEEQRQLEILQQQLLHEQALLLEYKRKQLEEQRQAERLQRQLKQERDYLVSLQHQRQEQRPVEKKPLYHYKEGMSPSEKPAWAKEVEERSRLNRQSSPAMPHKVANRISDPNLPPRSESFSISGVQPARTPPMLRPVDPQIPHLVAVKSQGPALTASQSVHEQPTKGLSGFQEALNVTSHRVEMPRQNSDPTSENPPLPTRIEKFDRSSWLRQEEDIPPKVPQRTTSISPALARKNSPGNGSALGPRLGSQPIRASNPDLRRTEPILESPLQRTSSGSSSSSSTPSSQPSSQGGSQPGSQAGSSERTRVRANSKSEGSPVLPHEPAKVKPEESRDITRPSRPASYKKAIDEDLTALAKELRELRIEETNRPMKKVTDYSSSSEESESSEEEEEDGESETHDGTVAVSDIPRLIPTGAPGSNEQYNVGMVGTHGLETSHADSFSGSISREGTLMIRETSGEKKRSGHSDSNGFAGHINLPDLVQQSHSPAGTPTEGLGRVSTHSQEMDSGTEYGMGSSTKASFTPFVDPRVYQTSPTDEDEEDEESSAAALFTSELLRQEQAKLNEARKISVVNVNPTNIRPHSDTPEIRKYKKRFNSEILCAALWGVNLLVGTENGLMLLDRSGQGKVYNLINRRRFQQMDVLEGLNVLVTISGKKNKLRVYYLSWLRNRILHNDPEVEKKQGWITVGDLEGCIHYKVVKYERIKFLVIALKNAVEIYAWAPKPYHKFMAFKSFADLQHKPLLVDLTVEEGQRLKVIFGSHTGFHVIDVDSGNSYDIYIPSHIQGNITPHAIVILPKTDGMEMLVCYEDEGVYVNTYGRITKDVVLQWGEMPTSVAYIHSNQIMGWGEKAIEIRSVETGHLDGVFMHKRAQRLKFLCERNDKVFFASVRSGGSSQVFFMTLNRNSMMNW
# Sequence of CDC2L1 (P21127 whole entry): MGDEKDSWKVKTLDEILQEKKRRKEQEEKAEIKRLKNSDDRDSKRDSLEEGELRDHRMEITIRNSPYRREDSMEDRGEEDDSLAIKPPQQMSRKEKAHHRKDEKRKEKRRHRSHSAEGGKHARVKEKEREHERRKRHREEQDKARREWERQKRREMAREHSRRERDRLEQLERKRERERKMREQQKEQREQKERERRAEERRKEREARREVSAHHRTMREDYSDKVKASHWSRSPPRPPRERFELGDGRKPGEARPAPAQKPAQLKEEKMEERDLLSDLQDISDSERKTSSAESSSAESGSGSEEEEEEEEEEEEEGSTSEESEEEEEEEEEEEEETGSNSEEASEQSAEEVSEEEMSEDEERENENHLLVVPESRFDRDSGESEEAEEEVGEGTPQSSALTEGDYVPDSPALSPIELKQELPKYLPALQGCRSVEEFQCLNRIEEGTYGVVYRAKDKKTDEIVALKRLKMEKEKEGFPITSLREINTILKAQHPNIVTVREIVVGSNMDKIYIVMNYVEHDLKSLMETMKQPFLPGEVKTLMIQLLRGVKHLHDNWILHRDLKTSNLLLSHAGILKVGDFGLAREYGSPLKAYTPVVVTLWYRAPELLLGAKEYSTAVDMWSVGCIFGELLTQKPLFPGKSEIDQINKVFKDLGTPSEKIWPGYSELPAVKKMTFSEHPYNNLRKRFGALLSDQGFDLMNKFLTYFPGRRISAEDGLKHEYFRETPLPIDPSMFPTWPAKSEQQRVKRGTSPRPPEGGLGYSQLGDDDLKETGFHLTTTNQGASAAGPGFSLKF
# Sequence of CSNK1G1 (Q9HCP0 whole entry): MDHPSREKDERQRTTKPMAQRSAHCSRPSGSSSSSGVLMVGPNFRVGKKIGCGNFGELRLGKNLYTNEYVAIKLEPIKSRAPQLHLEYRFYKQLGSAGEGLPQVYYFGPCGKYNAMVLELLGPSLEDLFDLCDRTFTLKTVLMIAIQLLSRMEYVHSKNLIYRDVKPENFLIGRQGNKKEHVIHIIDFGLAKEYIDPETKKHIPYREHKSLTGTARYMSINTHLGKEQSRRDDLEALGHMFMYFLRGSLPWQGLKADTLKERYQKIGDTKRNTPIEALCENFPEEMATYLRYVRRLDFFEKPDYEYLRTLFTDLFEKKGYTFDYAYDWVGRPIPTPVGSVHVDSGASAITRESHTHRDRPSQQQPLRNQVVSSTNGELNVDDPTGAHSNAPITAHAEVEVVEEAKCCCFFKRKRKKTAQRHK
# Sequence of MEK6 (P52564 whole entry, canonical isoform): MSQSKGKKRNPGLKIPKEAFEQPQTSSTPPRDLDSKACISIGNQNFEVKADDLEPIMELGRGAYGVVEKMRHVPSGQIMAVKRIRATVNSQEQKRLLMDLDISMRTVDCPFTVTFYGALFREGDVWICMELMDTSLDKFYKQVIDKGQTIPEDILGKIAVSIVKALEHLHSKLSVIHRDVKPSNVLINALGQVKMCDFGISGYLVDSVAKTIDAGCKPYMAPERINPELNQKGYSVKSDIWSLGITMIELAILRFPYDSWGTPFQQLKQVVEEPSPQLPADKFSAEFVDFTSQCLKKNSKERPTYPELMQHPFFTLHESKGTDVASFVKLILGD
structure (smiles),measurement,setting,value
"O=C(O)c1cccc(-c2n[nH]c3ccccc23)c1 [Compound 6a, 3-(1H-indazol-3-yl)benzoic Acid]",% Ctrl @ 10000 nM,TRKC,39 % Ctrl
same,% Ctrl @ 10000 nM,CHEK2,76 % Ctrl
same,% Ctrl @ 10000 nM,SIK2,93 % Ctrl
same,% Ctrl @ 10000 nM,EPHA6,97 % Ctrl
same,% Ctrl @ 10000 nM,NLK,97 % Ctrl
same,% Ctrl @ 10000 nM,IKK-EPSILON,48 % Ctrl
same,% Ctrl @ 10000 nM,ABL2,100 % Ctrl
same,% Ctrl @ 10000 nM,CSNK1G1,80 % Ctrl
same,% Ctrl @ 10000 nM,EPHA2,92 % Ctrl
same,% Ctrl @ 10000 nM,MARK4,97 % Ctrl
same,% Ctrl @ 10000 nM,CDC2L1,100 % Ctrl
same,% Ctrl @ 10000 nM,MRCKA,95 % Ctrl
same,% Ctrl @ 10000 nM,PHKG2,98 % Ctrl
same,% Ctrl @ 10000 nM,[1],40 % Ctrl
same,% Ctrl @ 10000 nM,CSNK1A1L,87 % Ctrl
same,% Ctrl @ 10000 nM,TEC,100 % Ctrl
same,IC50,MEK2 [2],> 27 µM
same,% Ctrl @ 10000 nM,AAK1,87 % Ctrl
same,IC50,MEK5,> 27 µM
same,% Ctrl @ 10000 nM,MUSK,100 % Ctrl
same,% Ctrl @ 10000 nM,VEGFR2,20 % Ctrl
same,% Ctrl @ 10000 nM,MEK3,13 % Ctrl
same,% Ctrl @ 10000 nM,EPHB4,89 % Ctrl
same,% Ctrl @ 10000 nM,[3],85 % Ctrl
same,% Ctrl @ 10000 nM,ZAP70,70 % Ctrl
same,% Ctrl @ 10000 nM,MEK2 [4],60 % Ctrl
same,% Ctrl @ 10000 nM,FGFR1,100 % Ctrl
same,% Ctrl @ 10000 nM,MKK7,66 % Ctrl
same,% Ctrl @ 10000 nM,HIPK1,43 % Ctrl
same,% Ctrl @ 10000 nM,MLK2,100 % Ctrl
same,% Ctrl @ 10000 nM,DMPK,100 % Ctrl
same,% Ctrl @ 10000 nM,ICK,43 % Ctrl
same,% Ctrl @ 10000 nM,PRKCD,100 % Ctrl
same,IC50,MEK6,10 µM
same,% Ctrl @ 10000 nM,ALK(L1196M),59 % Ctrl
same,% Ctrl @ 10000 nM,TNIK,65 % Ctrl
same,% Ctrl @ 10000 nM,ERK2,96 % Ctrl
same,% Ctrl @ 10000 nM,PRP6,76 % Ctrl
same,"number of kinases hit, out of 57 tested",panel of 57 kinases,5
same,% Ctrl @ 10000 nM,KIT(L576P),59 % Ctrl
same,% Ctrl @ 10000 nM,MAP3K4,90 % Ctrl
"O=C(O)c1ccc(-c2n[nH]c3cc(F)ccc23)cc1 [Compound 6ff, 4-(6-fluoro-2H-indazol-3-yl)benzoic Acid]",% Ctrl @ 10000 nM,TRKC,11 % Ctrl
same,% Ctrl @ 10000 nM,CHEK2,39 % Ctrl
same,% Ctrl @ 10000 nM,SIK2,100 % Ctrl
same,% Ctrl @ 10000 nM,EPHA6,99 % Ctrl
same,% Ctrl @ 10000 nM,NLK,99 % Ctrl
same,% Ctrl @ 10000 nM,IKK-EPSILON,43 % Ctrl
same,% Ctrl @ 10000 nM,ABL2,100 % Ctrl
same,% Ctrl @ 10000 nM,CSNK1G1,90 % Ctrl
same,% Ctrl @ 10000 nM,EPHA2,100 % Ctrl
same,% Ctrl @ 10000 nM,MARK4,86 % Ctrl
same,% Ctrl @ 10000 nM,CDC2L1,100 % Ctrl
same,% Ctrl @ 10000 nM,MRCKA,89 % Ctrl
same,% Ctrl @ 10000 nM,PHKG2,89 % Ctrl
same,% Ctrl @ 10000 nM,[1],12 % Ctrl
same,% Ctrl @ 10000 nM,CSNK1A1L,93 % Ctrl
same,% Ctrl @ 10000 nM,TEC,100 % Ctrl
same,IC50,MEK2 [2],> 27 µM
same,% Ctrl @ 10000 nM,AAK1,55 % Ctrl
same,IC50,MEK5,> 27 µM
same,% Ctrl @ 10000 nM,MUSK,65 % Ctrl
same,% Ctrl @ 10000 nM,VEGFR2,3.5 % Ctrl
same,% Ctrl @ 10000 nM,MEK3,1.6 % Ctrl
same,% Ctrl @ 10000 nM,EPHB4,100 % Ctrl
same,% Ctrl @ 10000 nM,[3],81 % Ctrl
same,% Ctrl @ 10000 nM,ZAP70,73 % Ctrl
same,% Ctrl @ 10000 nM,MEK2 [4],61 % Ctrl
same,% Ctrl @ 10000 nM,FGFR1,99 % Ctrl
same,% Ctrl @ 10000 nM,MKK7,52 % Ctrl
same,% Ctrl @ 10000 nM,HIPK1,48 % Ctrl
same,% Ctrl @ 10000 nM,MLK2,95 % Ctrl
same,% Ctrl @ 10000 nM,DMPK,100 % Ctrl
same,% Ctrl @ 10000 nM,ICK,26 % Ctrl
same,% Ctrl @ 10000 nM,PRKCD,100 % Ctrl
same,IC50,MEK6,11 µM
same,% Ctrl @ 10000 nM,ALK(L1196M),61 % Ctrl
same,% Ctrl @ 10000 nM,TNIK,3.6 % Ctrl
same,% Ctrl @ 10000 nM,ERK2,100 % Ctrl
same,% Ctrl @ 10000 nM,PRP6,52 % Ctrl
same,"number of kinases hit, out of 57 tested",panel of 57 kinases,12
same,% Ctrl @ 10000 nM,KIT(L576P),11 % Ctrl
same,% Ctrl @ 10000 nM,MAP3K4,100 % Ctrl
